Assay results as given in US9249152B2, “Cyano containing azabenzofuran compounds for the treatment of hepatitis C” (BRISTOL-MYERS SQUIBB COMPANY, priority 2014, dated 2016).
Read-outs that look alike come from different tables or passages of the source.

Tested on: genotype 1b (Con-1) HCV replicon
Assay: HCV replicon luciferase assay, genotype 1b (Con-1)
Assay type: cell-based
Conditions: genotype 1b HCV replicon, Huh-7 cells, Renilla luciferase, 3 days
Method: The cell lines used to evaluate compounds consist of a human hepatocyte derived cell line (Huh-7) that constitutively expresses a genotype 1b (Con-1) HCV replicon or a genotype 1b (Con-1) HCV replicon with an asparagine replacing the cysteine at amino acid 316, or a genotype 2a (JFH-1) replicon, containing a Renilla luciferase reporter gene. These cells were maintained in Dulbecco's modified Eagle medium (DMEM) containing 10% FBS, 100 U/mL penicillin/streptomycin and 1.0 mg/mL G418.
To evaluate compound efficacy, titrated compounds were transferred to sterile 384-well tissue culture treated plates, and the plates were seeded with HCV replicon cells (50 μL at a density of 2.4×10^3 cells/well) in DMEM containing 4% FBS (final DMSO concentration at 0.5%). After 3 days incubation at 37° C., cells were analyzed for Renilla Luciferase activity using the EnduRen substrate (Promega cat #E6485) according to the manufacturer's directions. Briefly, the EnduRen substrate was diluted in DMEM and then added to the plates to a final concentration of 7.5 μM. The plates were incubated for at least 1 h at 37° C. then read on a Viewlux Imager (PerkinElmer) using a luminescence program. The 50% effective concentration (EC50) was calculated using the four-parameter logistic formula noted above.

[1] = Hepatitis C virus, Huh-7, 72 h, read-out: EC50 1b (class)
[2] = Hepatitis C virus, Huh-7, 72 h, read-out: EC50 (uM) 1b

Work on CC[C@H](C)c1nc2oc(-c3ccc(F)cc3)c(C(=O)NC)c2cc1-c1cccc(C(=O)NC(C)(C)C#N)c1 [Compound K11001] yielded an EC50 [1] of under 0.1 µM and an EC50 [2] of 0.0133 µM.
CNC(=O)c1c(-c2ccc(F)cc2)oc2nc(CCC(F)(F)F)c(-c3ccc(F)c(C(=O)NC(C)(C#N)C(C)C)c3)cc12 (stereo not drawn) [Compound 13002] was tested, and the EC50 [1] was under 0.1 µM and the EC50 [2] was 0.0024 µM.
CNC(=O)c1c(-c2ccc(F)cc2)oc2nc(NCC(F)(F)F)c(-c3ccc(F)c(C(=O)NC4(C#N)CC4)c3)cc12 [Compound K2002] showed an EC50 [1] of under 0.1 µM and an EC50 [2] of 0.0034 µM.
In the case of CNC(=O)c1c(-c2ccc(F)cc2)oc2nc(Cl)c(-c3ccc(OC)c(C(=O)NC4(C#N)CCC4)c3)cc12 [Compound 10002], the EC50 [1] is reported as under 0.1 µM.
In the case of CNC(=O)c1c(-c2ccc(F)cc2)oc2nc(CCC(F)(F)F)c(-c3ccc(OC)c(C(=O)NC(C)(C)C#N)c3)cc12 [Compound 12001], the EC50 [1] is reported as under 0.1 µM and the EC50 [2] is reported as 0.0025 µM.
CNC(=O)c1c(-c2ccc(F)cc2)oc2nc(NCC(F)(F)F)c(-c3cnc(OC)c(C(=O)NC4(C#N)CC4)c3)cc12 [Compound K8003] gave an EC50 [1] of under 0.1 µM.
Molecule CNC(=O)c1c(-c2ccc(F)cc2)oc2nc(CCC(F)(F)F)c(-c3ccc(F)c(C(=O)NC4(C#N)CCC4)c3)cc12 [Compound K1002] has an EC50 [1] of under 0.1 µM.
With CNC(=O)c1c(-c2ccc(F)cc2)oc2nc(NCC(F)(F)F)c(-c3cccc(C(=O)NC4(C#N)CCC4)c3)cc12 [Compound K4002] the EC50 [1] was under 0.1 µM.
CNC(=O)c1c(-c2ccc(F)cc2)oc2nc(CCC(F)(F)F)c(-c3cccc(C(=O)NC(C)(C#N)C4CC4)c3)cc12 (stereo not drawn) [Compound 11005] was tested, and the EC50 [1] was under 0.1 µM.
CNC(=O)c1c(-c2ccc(F)cc2)oc2nc(NCC(F)(F)F)c(-c3cc(F)cc(C(=O)NC(C)(C)C#N)c3)cc12 [Compound 23002] was tested, and the EC50 [1] was under 0.1 µM and the EC50 [2] was 0.0072 µM.
With CNC(=O)c1c(-c2ccc(F)cc2)oc2nc(NCC(F)(F)F)c(-c3ccc(F)c(C(=O)NC(C)C#N)c3)cc12 (stereo not drawn) [Compound 22003] the EC50 (read-out: EC50 1b (class)) was under 0.1 µM.
With CNC(=O)c1c(-c2ccc(F)cc2)oc2nc(NCC(F)(F)F)c(-c3cccc(C(=O)NC4(C#N)CCCC4)c3)cc12 [Compound K4001] the EC50 [1] was under 0.1 µM.
CNC(=O)c1c(-c2ccc(F)cc2)oc2nc(NCC(F)(F)F)c(-c3cccc(C(=O)NC(C)(C#N)C4CC4)c3)cc12 (stereo not drawn) [Compound 20006] gave an EC50 [1] of under 0.1 µM and an EC50 [2] of 0.0031 µM.
CNC(=O)c1c(-c2ccc(F)cc2)oc2nc(NCC(F)(F)F)c(-c3ccc(OC)c(C(=O)NC4(C#N)CCCC4)c3)cc12 [Compound K5003] was tested, and the EC50 [1] was under 0.1 µM.
CNC(=O)c1c(-c2ccc(F)cc2)oc2nc(CCC(F)(F)F)c(-c3cccc(C(=O)NC4(C#N)CCCC4)c3)cc12 [Compound 11003] was tested, and the EC50 [1] was under 0.1 µM and the EC50 [2] was 0.0046 µM.
CNC(=O)c1c(-c2ccc(F)cc2)oc2nc(CCC(F)(F)F)c(-c3ccc(F)c(C(=O)NC(C)C#N)c3)cc12 (stereo not drawn) [Compound 13004] was tested, and the EC50 (read-out: EC50 1b (class)) was under 0.1 µM.
CNC(=O)c1c(-c2ccc(F)cc2)oc2nc(CCC(F)(F)F)c(-c3cnc(OC)c(C(=O)NC(C)(C)C#N)c3)cc12 [Compound K7001] showed an EC50 [1] of under 0.1 µM.
CNC(=O)c1c(-c2ccc(F)cc2)oc2nc(CCC(F)(F)F)c(-c3cc(C(=O)NC(C)(C#N)C4CC4)ccc3F)cc12 (stereo not drawn) [Compound 15001] showed an EC50 [1] of under 0.1 µM.
CNC(=O)c1c(-c2ccc(F)cc2)oc2nc(CCC(F)(F)F)c(-c3cnc(OC)c(C(=O)NC(C)(C#N)C(C)C)c3)cc12 (stereo not drawn) [Compound K7005] gave an EC50 [1] of under 0.1 µM and an EC50 [2] of 0.0028 µM.
CNC(=O)c1c(-c2ccc(F)cc2)oc2nc(NCC(F)(F)F)c(-c3ccc(F)c(C(=O)NC(C)(C#N)C4CC4)c3)cc12 (stereo not drawn) [Compound 22004] was tested, and the EC50 [1] was under 0.1 µM and the EC50 [2] was 0.004 µM.
CC[C@@H](C)c1nc2oc(-c3ccc(F)cc3)c(C(=O)NC)c2cc1-c1cccc(C(=O)NC(C)(C)C#N)c1 [Compound K11002] gave an EC50 [1] of under 0.1 µM and an EC50 [2] of 0.0044 µM.
For CNC(=O)c1c(-c2ccc(F)cc2)oc2nc(NCC(F)(F)F)c(-c3cccc(C(=O)NC(C)C#N)c3)cc12 (stereo not drawn) [Compound 20003], the EC50 (read-out: EC50 1b (class)) was under 0.1 µM.
CNC(=O)c1c(-c2ccc(F)cc2)oc2nc(CCC(F)(F)F)c(-c3ccc(F)c(C(=O)NC(C)C#N)c3)cc12 (stereo not drawn) [Compound 13005] was tested, and the EC50 (read-out: EC50 1b (class)) was under 0.1 µM.
